Results on nine compounds are retold here after patent US12522601B2, “1,3,4-oxadiazole derivative compounds as histone deacetylase 6 inhibitor, and the pharmaceutical composition comprising the same” (CHONG KUN DANG PHARMACEUTICAL CORP., priority 2020, dated 2026).

Assay [1] addresses T1, human recombinant HDAC1 (Homo sapiens, UniProt Q13547).
T1 construct: purchased Enzo Life Sciences, Inc. BML-SE456
Description: In vitro HDAC enzyme activity inhibition assay, HDAC1 (HDAC Fluorimetric Drug Discovery Kit). It counts as biochemical. The following applies: human recombinant HDAC1, Fluor de Lys-SIRT1 substrate 10 μM, 30° C. for 60 minutes. The procedure, abridged:
(§1)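 Fluorimetric deacetylase kit; 0.3 μg human recombinant enzyme with 10 μM Fluor de Lys-SIRT1 substrate, 60 min at 30° C, then developer 30 min. Fluorescence read at Ex 360/Em 460; IC50 from 5-fold compound dilutions. HDAC1 and HDAC6 run by the same protocol.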

Assay [2] has as its target T2, human recombinant HDAC6 (Homo sapiens, UniProt Q9UBN7).
T2 construct: purchased Calbiochem Inc. 382180
T2 sequence (Q9UBN7 1-1215): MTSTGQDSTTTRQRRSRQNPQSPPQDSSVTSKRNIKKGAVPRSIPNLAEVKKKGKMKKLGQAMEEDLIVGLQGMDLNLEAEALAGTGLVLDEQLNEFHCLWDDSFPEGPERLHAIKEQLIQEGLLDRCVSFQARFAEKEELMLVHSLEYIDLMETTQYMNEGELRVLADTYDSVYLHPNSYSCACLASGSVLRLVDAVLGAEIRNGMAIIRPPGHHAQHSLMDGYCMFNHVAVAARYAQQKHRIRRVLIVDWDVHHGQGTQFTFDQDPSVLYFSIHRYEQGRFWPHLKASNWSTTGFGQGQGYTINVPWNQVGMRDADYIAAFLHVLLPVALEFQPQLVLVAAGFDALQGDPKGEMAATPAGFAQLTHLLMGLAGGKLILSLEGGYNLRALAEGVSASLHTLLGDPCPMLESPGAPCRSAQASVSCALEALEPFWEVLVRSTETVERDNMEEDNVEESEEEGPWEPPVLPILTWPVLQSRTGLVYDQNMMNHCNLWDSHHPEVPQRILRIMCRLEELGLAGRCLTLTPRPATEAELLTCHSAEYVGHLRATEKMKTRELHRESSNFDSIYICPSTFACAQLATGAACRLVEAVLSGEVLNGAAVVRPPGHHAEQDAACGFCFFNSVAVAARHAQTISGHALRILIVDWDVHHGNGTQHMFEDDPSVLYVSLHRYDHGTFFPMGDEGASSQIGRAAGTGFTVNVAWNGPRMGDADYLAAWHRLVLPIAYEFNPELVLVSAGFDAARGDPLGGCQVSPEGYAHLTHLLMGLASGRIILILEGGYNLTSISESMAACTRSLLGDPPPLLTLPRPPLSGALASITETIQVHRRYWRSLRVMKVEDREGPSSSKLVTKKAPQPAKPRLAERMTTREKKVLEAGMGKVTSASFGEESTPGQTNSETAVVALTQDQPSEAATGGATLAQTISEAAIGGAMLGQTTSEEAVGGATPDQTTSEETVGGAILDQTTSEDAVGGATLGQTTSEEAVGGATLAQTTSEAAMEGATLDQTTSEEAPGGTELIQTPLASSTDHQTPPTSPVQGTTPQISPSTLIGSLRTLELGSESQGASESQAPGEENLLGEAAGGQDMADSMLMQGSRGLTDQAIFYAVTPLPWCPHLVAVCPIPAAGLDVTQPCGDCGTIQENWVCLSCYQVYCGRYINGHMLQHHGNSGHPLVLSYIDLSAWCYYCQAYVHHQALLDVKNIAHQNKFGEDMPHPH
Kind of assay: In vitro HDAC enzyme activity inhibition assay, HDAC6 (HDAC Fluorimetric Drug Discovery Kit). It counts as biochemical. The following applies: for HDAC6 Selectivity (fold): HDAC6 versus HDAC1; for pIC50: human recombinant HDAC6, same protocol as the HDAC1 test. The procedure, abridged:
as §1

Structures are written as SMILES. pIC50: −log10 of the molar value.

T1 sequence (Q13547 whole entry): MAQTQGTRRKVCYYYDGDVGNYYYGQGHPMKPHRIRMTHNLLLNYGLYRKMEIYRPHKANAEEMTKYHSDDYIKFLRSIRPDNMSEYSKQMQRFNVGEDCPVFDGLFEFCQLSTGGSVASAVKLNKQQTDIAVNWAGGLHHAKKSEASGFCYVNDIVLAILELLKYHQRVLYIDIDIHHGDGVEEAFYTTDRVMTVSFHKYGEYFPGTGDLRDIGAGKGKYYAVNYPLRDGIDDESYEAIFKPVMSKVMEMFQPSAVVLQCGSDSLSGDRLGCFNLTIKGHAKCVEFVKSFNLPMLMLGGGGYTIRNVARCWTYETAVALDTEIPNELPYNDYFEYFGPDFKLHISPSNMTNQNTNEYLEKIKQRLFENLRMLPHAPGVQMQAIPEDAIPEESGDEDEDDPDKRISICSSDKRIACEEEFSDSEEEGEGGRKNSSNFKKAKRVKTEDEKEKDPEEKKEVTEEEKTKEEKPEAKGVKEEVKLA

The pIC50 is −log10 of the IC50, conventionally taken in molar units. In the case of `CC(C)N1CCC(C(=O)N(Cc2cn3ccc(-c4nnc(C(F)F)o4)cc3n2)c2cccc(F)c2)CC1` [Compound 4139, N-((7-(5-(difluoromethyl)-1,3,4-oxadiazol-2-yl)imidazo[1,2-a]pyridin-2-yl)methyl)-N-(3-fluorophenyl)-1-isopropylpiperidine-4-carboxamide], the pIC50 is less than 4.30 in assay [1] and 6.91 in assay [2]. For the same compound, the “HDAC6 Selectivity (fold)” value in assay [2] amounted to 403 fold.

In the case of `O=C(C1CN(C2COC2)C1)N(Cc1cn2ccc(-c3nnc(C(F)F)o3)cc2n1)c1ccccc1` [Compound 4163, N-((7-(5-(difluoromethyl)-1,3,4-oxadiazol-2-yl)imidazo[1,2-a]pyridin-2-yl)methyl)-1-(oxetan-3-yl)-N-phenylazetidine-3-carboxamide], the pIC50 in assay [1] is less than 4.30. In assay [2], the “HDAC6 Selectivity (fold)” value was found to be 122 fold and the pIC50 is 6.39.

`O=C(C1CN(c2ncccn2)C1)N(Cc1cn2ccc(-c3nnc(C(F)F)o3)cc2n1)c1ccccc1` [Compound 4177, N-((7-(5-(difluoromethyl)-1,3,4-oxadiazol-2-yl)imidazo[1,2-a]pyridin-2-yl)methyl)-N-phenyl-1-(pyrimidin-2-yl) azetidine-3-carboxamide]: the pIC50 in assay [1] was less than 4.30. In assay [2], the “HDAC6 Selectivity (fold)” value is listed as 205 fold and the pIC50 is 6.61.

In the case of `CC(C)N1CC(C(=O)N(Cc2cn3ccc(-c4nnc(C(F)F)o4)cc3n2)c2cccc(F)c2)C1` [Compound 4190, N-((7-(5-(difluoromethyl)-1,3,4-oxadiazol-2-yl)imidazo[1,2-a]pyridin-2-yl)methyl)-N-(3-fluorophenyl)-1-isopropylazetidine-3-carboxamide], the pIC50 in assay [1] is less than 4.30. Moreover, in assay [2], the “HDAC6 Selectivity (fold)” value is listed as 395 fold and the pIC50 was 6.90.

For the compound `CS(=O)(=O)N1CCN(C(=O)N(Cc2cn3ccc(-c4nnc(C(F)F)o4)cc3n2)c2ccccc2)CC1` [Compound 4045, N-((7-(5-(difluoromethyl)-1,3,4-oxadiazol-2-yl)imidazo[1,2-a]pyridin-2-yl)methyl)-4-(methylsulfonyl)-N-phenylpiperazine-1-carboxamide], the pIC50 in assay [1] was less than 4.30. In addition, in assay [2], the “HDAC6 Selectivity (fold)” value was determined as 392 fold and the pIC50 is 6.89.

In the case of `CN1CC(C(=O)N(Cc2cn3ccc(-c4nnc(C(F)F)o4)cc3n2)c2ccccc2)C1` [Compound 4158, N-((7-(5-(difluoromethyl)-1,3,4-oxadiazol-2-yl)imidazo[1,2-a]pyridin-2-yl)methyl)-1-methyl-N-phenylazetidine-3-carboxamide], the pIC50 was less than 4.30 in assay [1] and 6.35 in assay [2]. Also, the “HDAC6 Selectivity (fold)” value in assay [2] was 112 fold.

In the case of `CCC(=O)N1CCN(C(=O)N(Cc2cn3ccc(-c4nnc(C(F)F)o4)cc3n2)c2ccccc2)CC1` [Compound 4041, N-((7-(5-(difluoromethyl)-1,3,4-oxadiazol-2-yl)imidazo[1,2-a]pyridin-2-yl)methyl)-N-phenyl-4-propionylpiperazine-1-carboxamide], the pIC50 in assay [1] was less than 4.30. Also, in assay [2], the “HDAC6 Selectivity (fold)” value stood at 193 fold and the negative-log IC50 (pIC50) was 6.59.

With `O=C(CO)N1CCN(C(=O)N(Cc2cn3ccc(-c4nnc(C(F)F)o4)cc3n2)c2ccccc2)CC1` [Compound 4042, N-((7-(5-(difluoromethyl)-1,3,4-oxadiazol-2-yl)imidazo[1,2-a]pyridin-2-yl)methyl)-4-(2-hydroxyacetyl)-N-phenylpiperazine-1-carboxamide], the pIC50 in assay [1] is less than 4.30. Besides, in assay [2], the “HDAC6 Selectivity (fold)” value turned out to be 197 fold and the pIC50 was 6.59.

Consider `CS(=O)(=O)c1ccc(Cc2cn3ccc(-c4nnc(C(F)F)o4)cc3n2)cc1` [Compound 3595, 2-(difluoromethyl)-5-(2-(4-(methylsulfonyl)benzyl)imidazo[1,2-a]pyridin-7-yl)-1,3,4-oxadiazole], for which the pIC50 in assay [1] is less than 4.30. In assay [2], the “HDAC6 Selectivity (fold)” value is 112 fold and the negative logarithm of the IC50 (pIC50) was 6.35.
